According to patent US20050171424A1, “Methods for imaging the lymphatic system using dendrimer-based contrast agents” (The Gov. of the USA as rep. by the Secretary of the Dept. …, priority 2004, published 2005):

Assays:
[1] = test system: draining lymph nodes and lymphatic vessels; assay: 3D dynamic mammo-lymphangiograms after sequential injection of GPDM and PAMAM-G6 into the mammary gland; assay type: in vivo, athymic nu/nu mice; settings: 0.15 μmol Gd into mammary gland; GPDM imaged at 12, 24, 36 min, then PAMAM-G6 injected 36 minutes following GPDM
Protocol: Mice were anesthetized with 1.15 mg sodium pentobarbital (Dainabot, Osaka, Japan), and then injected with 0.15-0.24 μmol Gd/5-8 μL of the PAMAM-G6 contrast agent into normal mammary glands or mammary tissue surrounding a tumor (peritumorally). Dynamic micro-MR images were obtained using a 1.5-Tesla superconductive magnet unit (Signa LX, General Electric Medical System, Milwaukee, Wis.) with a birdcage type coil of 3 cm diameter fixed by a custom made coil holder. [Single and double “breast coils” used for imaging breasts in humans are commercially available, for example, from GE Medical Systems (Milwaukee, Wis.) and are routinely available in outpatient MRI centers] The mice were wrapped with gauze to stabilize their body temperature and were placed at the center of the coils. Athymic nu/nu mice (n=4) were anesthetized and injected with 0.15 μmol Gd of GPDM into the mammary gland, and images were taken 12, 24, and 36 min after injection. Following these three images, these mice were subsequently injected with 0.15 μmol Gd of PAMAM-G6 contrast agent in the mammary gland, and images were taken at 12 and 24 min post-injection of the PAMAM-G6 contrast agent (at 48 and 60 min post-injection of GPDM).

deep lymphatic system = assay: Whole-body dynamic 3D-micro-MR lymphangiography of normal mice (Example 2); assay type: in vivo; settings: for Number of Mice in Which the Thoracic Duct was Visualized/Number of Mice Examined: Normal Mice, 0.1 μmolGd intracutaneously into four middle phalanges; for Visualization of the deep lymph nodes: normal mice, 10 to 45 min after intracutaneous injection, FIGS. 7, 8; for Axillary lymph node-to-background (muscle) signal intensity ratio, comparison between agents: T1-weighted signal, P<0.01, FIG. 9A; for Axillary lymph node-to-background (muscle) signal intensity ratio, comparison between agents / Axillary lymph node-to-liver signal intensity ratio, comparison between agents: all time points examined; for Axillary lymph node-to-liver signal intensity ratio, comparison between agents: P<0.01, FIG. 9B
Protocol: (§1) The mice were anesthetized with 1.15 mg sodium pentobarbital (Dainabot, Osaka, Japan) i.p., and then injected intracutaneously with 0.1 μmolGd of PAMAM-G8, DAB-G5, PAMAM-G4, Gadomer-17, or GPDM into four middle phalanges in all four extremities. Dynamic micro-MR images were obtained using a 1.5-Tesla superconductive magnet unit (Signa LX, General Electric Medical System, Milwaukee, Wis.) with a round birdcage type coil of 3 cm diameter fixed by a custom-made coil holder. Four to eight female mice (7 weeks old, 18-21 g body weight) in each group were used and each contrast agent was prepared at least three separate times for these imaging studies. The mice were wrapped with gauze to stabilize their body temperature and were placed at the center of the coils.
(§2) A 3D-fast spoiled gradient echo [3D-fastSPGR (efgre3d package; Signa Horizon, GE); repetition time/echo time 28.5/7.9 msec; inversion time 65 msec; 31.2 kHz, flip angle 30°, four excitations; 40 slice-encoding steps; scan time 7 min 36 seconds] with chemical shift fat-suppression was used 10, 20, 30, and 45 min after injection of the contrast agents. The coronal images were reconstructed with 0.6-mm section thickness at every 0.3-mm. The FOV was 6×3 cm and the size of the matrix was 512×256. The intensities of the regions of interest (ROIs) (for example, a whole axillary lymph node, and the liver) were measured, and then the time-intensity curves analyzed. The data were expressed as the axillary lymph node-to-muscle and the axillary lymph node-to-liver ratios. The slice data were processed into 3D images using the MIP method with the same window and level (window 3500 and level 2300) (Advantage Windows, General Electric Medical System). Two board-certified radiologists separately read a set of stereo views of 3D-MRL for all studies, and estimated the visualization of the thoracic duct. After imaging, the mice were sacrificed by carbon dioxide inhalation.
Statistical analyses were performed using either Student's t-test or a one-way analysis of variance (ANOVA), with a pairwise comparison using the Bonferroni method for signal intensity curves (Statview; SAS Institute Inc., Cary, N.C.).

[2] = test system: deep lymph nodes, thoracic duct and lymphatic vessels; assay: Whole-body 3D-micro-MR lymphangiography of normal mice, PAMAM-G8 versus GPDM (Example 3); assay type: in vivo; settings: intracutaneous injection, 0.05 mmolGd/kg (FIG. 13)
Protocol: as §1, §2
In this example, the PAMAM-G8 contrast agent is compared to GPDM. PAMAM-G8 was prepared as described in Example 2, and GPDM was purchased (Schering AG, Berlin, Germany). Animal models, administration of the contrast agents, and 3D-micro-MRL were as described in Example 2.

[3] = test system: lymph nodes and lymphatic vessels of IL-15 transgenic mice; assay: 3D-micro-MRL in IL-15 transgenic lymphoproliferative/neoplastic disease model; assay type: in vivo; settings: 45 minutes after injection, FIGS. 11, 15A
Protocol: Eight- to 10-month old IL-15 transgenic mice (on a C57BL6 background) were used as a chronic lymphoproliferative/neoplastic disease model because they manifested selective expansion of NK, CD8^+NK-T, γδIELs, and CD8 T cells in the periphery. Most of the lymph nodes collected from an aged IL-15 transgenic mouse were enlarged in size. The lesion of proliferated monoclonal lymphocytes often involved the lung and the subcutaneous lymphatic tissue.
as §1
as §2, with “The FOV was 6×3 cm and the size of the matrix was 512×256.” left out, “The slice data were processed into 3D images using the MIP method with the same window and level (window 3500 and level 2300) (Advantage Windows, General Electric Medical System).” left out, “After imaging, the mice were sacrificed by carbon dioxide inhalation.” left out

[4] = Distribution and survival properties of the dendrimer conjugates; settings: in vivo

Compound: CNC[C@H](O)[C@@H](O)[C@H](O)[C@H](O)CO.CNC[C@H](O)[C@@H](O)[C@H](O)[C@H](O)CO.O=C([O-])CN(CCN(CC(=O)[O-])CC(=O)O)CCN(CC(=O)[O-])CC(=O)O.[Gd+3] [GPDM, gadopentetate dimeglumine, reference compound]
- Visualization of draining lymph nodes and lymphatic vessels (FIG. 3) [1]: not well visualized
- Image enhancement (deep lymphatic system; 45 minutes after injection, FIG. 8B): Virtually no image enhancement
- Number of Mice in Which the Thoracic Duct was Visualized/Number of Mice Examined (deep lymphatic system; 10 min): 2/5
- Number of Mice in Which the Thoracic Duct was Visualized/Number of Mice Examined (deep lymphatic system; 20 min): 0/5
- Number of Mice in Which the Thoracic Duct was Visualized/Number of Mice Examined (deep lymphatic system; 30 min): 0/5
- Number of Mice in Which the Thoracic Duct was Visualized/Number of Mice Examined (deep lymphatic system; 45 min): 0/5
- Visualization of the deep lymph nodes (deep lymphatic system): did not allow most of the lymph nodes to be visualized even at early times
- Visualization of deep lymph nodes throughout the body [2]: but not with GPDM

Compound: Gadomer-17 [reference compound]
- Number of Mice in Which the Thoracic Duct was Visualized/Number of Mice Examined (deep lymphatic system; 10 min): 2/5
- Number of Mice in Which the Thoracic Duct was Visualized/Number of Mice Examined (deep lymphatic system; 20 min): 2/5
- Number of Mice in Which the Thoracic Duct was Visualized/Number of Mice Examined (deep lymphatic system; 30 min): 1/5
- Number of Mice in Which the Thoracic Duct was Visualized/Number of Mice Examined (deep lymphatic system; 45 min): 1/5
- Axillary lymph node-to-background (muscle) signal intensity ratio, comparison between agents (deep lymphatic system): significantly higher than that acquired with GPDM
- Axillary lymph node-to-liver signal intensity ratio, comparison between agents (deep lymphatic system): nearly equivalent, but were significantly higher than that measured with GPDM
- Visualization of the deep lymph nodes (deep lymphatic system): allowed visualization of the deep lymph nodes, albeit not as clearly and brightly as the dendrimer-based agents

Compound: DAB-Am-128-(Gd-1B4M)128 dendrimer conjugate [DAB-G5]
- Number of Mice in Which the Thoracic Duct was Visualized/Number of Mice Examined (deep lymphatic system; 10 min): 3/5
- Number of Mice in Which the Thoracic Duct was Visualized/Number of Mice Examined (deep lymphatic system; 20 min): 2/5
- Number of Mice in Which the Thoracic Duct was Visualized/Number of Mice Examined (deep lymphatic system; 30 min): 0/5
- Number of Mice in Which the Thoracic Duct was Visualized/Number of Mice Examined (deep lymphatic system; 45 min): 0/5
- Axillary lymph node-to-background (muscle) signal intensity ratio, comparison between agents (deep lymphatic system): significantly higher than that obtained with either PAMAM-G8 or PAMAM-G4
- Axillary lymph node-to-liver signal intensity ratio, comparison between agents (deep lymphatic system): nearly equivalent, but were significantly higher than that measured with GPDM
- Lymph node findings on 3D-micro-MRL [3]: considerable multiple lymph node swellings with central filling defects
- Distribution within the lymphatic system [4]: tend to accumulate in the lymph nodes rather than the vessels

Compound: PAMAM-G4D-(Gd-1B4M)64 dendrimer conjugate
- Number of Mice in Which the Thoracic Duct was Visualized/Number of Mice Examined (deep lymphatic system; 10 min): 4/5
- Number of Mice in Which the Thoracic Duct was Visualized/Number of Mice Examined (deep lymphatic system; 20 min): 4/5
- Number of Mice in Which the Thoracic Duct was Visualized/Number of Mice Examined (deep lymphatic system; 30 min): 3/5
- Number of Mice in Which the Thoracic Duct was Visualized/Number of Mice Examined (deep lymphatic system; 45 min): 2/5
- Axillary lymph node-to-background (muscle) signal intensity ratio, comparison between agents (deep lymphatic system): significantly higher than that measured with Gadomer-17 and GPDM
- Axillary lymph node-to-liver signal intensity ratio, comparison between agents (deep lymphatic system): significantly higher than that acquired with PAMAM-G8, DAB G-5, or Gadomer-17
- Distribution within the lymphatic system [4]: tend to accumulate in the lymph nodes rather than the vessels
- Survival in the blood circulation and excretion [4]: short survival in the blood circulation due to a rapid renal excretion without significant retention in other organs
